Laboratory results taken from patent US20230391768A2, “IMIDAZOPYRIDINE DERIVATIVES AND AZA-IMIDAZOPYRIDINE DERIVATIVES AS JANUS KINASE 2 INHIBITORS AND USES THEREOF” (Dana-Farber Cancer Institute, Inc., priority 2018, published 2023).

What was measured:
Test in all cases: KINOMEscan
Type in all cases: binding
VEGFR2 = VEGFR2 (Homo sapiens (Human), UniProt P35968); details: read-out: percent of control
Method: (§1) In vitro profiling of Compound I-2 (1 μM) was performed using the DiscoveRx KINOMEscan® platform.

MINK = MINK (Homo sapiens (Human), UniProt Q8N4C8); details: read-out: percent of control
Method: as §1

CSNK1A1L = CSNK1A1L (Homo sapiens (Human), UniProt Q8N752); details: read-out: percent of control
Method: as §1

GRK7 = GRK7 (Homo sapiens (Human), UniProt Q8WTQ7); details: read-out: percent of control
Chain of GRK7 (Q8WTQ7 whole entry): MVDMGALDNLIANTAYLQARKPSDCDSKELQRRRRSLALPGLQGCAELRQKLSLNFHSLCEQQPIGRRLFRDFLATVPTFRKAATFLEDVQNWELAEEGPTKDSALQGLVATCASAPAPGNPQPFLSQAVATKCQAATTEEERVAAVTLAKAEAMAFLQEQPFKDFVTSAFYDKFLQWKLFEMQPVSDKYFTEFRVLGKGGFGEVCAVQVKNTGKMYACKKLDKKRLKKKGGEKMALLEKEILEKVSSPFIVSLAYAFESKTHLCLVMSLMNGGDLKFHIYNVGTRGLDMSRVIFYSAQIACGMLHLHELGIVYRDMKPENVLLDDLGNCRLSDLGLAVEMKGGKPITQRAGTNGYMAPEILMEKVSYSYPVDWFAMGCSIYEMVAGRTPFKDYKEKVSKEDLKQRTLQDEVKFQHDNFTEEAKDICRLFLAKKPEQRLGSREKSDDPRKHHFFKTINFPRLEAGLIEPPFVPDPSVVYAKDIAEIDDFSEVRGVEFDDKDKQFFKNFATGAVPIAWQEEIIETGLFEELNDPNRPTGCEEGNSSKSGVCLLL
Method: as §1

WNK3 = WNK3 (Homo sapiens (Human), UniProt Q9BYP7); details: read-out: percent of control
Method: as §1

CASK = CASK (Homo sapiens (Human), UniProt O14936); details: read-out: percent of control
Method: as §1

[1] = target: RSK2 (Kin.Dom.1-N-terminal) (Homo sapiens (Human), UniProt P51812); details: read-out: percent of control
Chain of RSK2 (Kin.Dom.1-N-terminal) (P51812 68-327): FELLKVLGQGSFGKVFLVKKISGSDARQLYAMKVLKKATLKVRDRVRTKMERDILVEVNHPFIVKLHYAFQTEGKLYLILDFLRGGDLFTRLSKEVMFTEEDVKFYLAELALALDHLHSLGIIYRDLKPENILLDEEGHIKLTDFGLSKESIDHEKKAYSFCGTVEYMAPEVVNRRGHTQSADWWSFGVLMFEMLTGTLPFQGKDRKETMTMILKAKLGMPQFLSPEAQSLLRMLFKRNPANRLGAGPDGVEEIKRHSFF
Method: as §1

TNNI3K = TNNI3K (Homo sapiens (Human), UniProt Q59H18); details: read-out: percent of control
Method: as §1

CAMK4 = CAMK4 (Homo sapiens (Human), UniProt Q16566); details: read-out: percent of control
Method: as §1

EPHA5 = EPHA5 (Homo sapiens (Human), UniProt P54756); details: read-out: percent of control
Method: as §1

FLT3 (ITD,F691L) = details: 1 μM
Method: as §1

MEK4 = MEK4 (Homo sapiens (Human), UniProt P45985); details: read-out: percent of control
Chain of MEK4 (P45985 whole entry): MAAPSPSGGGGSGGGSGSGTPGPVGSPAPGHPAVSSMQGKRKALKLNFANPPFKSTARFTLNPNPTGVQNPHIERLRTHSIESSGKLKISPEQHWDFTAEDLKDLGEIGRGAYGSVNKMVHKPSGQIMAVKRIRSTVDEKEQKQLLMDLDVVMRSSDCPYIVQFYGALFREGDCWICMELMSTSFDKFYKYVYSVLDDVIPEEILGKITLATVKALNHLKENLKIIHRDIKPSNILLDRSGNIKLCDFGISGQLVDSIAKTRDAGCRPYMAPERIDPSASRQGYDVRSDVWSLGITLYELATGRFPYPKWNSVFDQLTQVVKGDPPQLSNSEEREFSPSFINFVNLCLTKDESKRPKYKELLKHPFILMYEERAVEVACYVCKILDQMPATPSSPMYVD
Method: as §1

CLK1 = CLK1 (Homo sapiens (Human), UniProt P49759); details: read-out: percent of control
Method: as §1

FLT4 = FLT4 (Homo sapiens (Human), UniProt P35916); details: read-out: percent of control
Method: as §1

IRAK1 = IRAK1 (Homo sapiens (Human), UniProt P51617); details: read-out: percent of control
Method: as §1

PIKFYVE = PIKFYVE (Homo sapiens (Human), UniProt Q9Y2I7); details: read-out: percent of control
Method: as §1

NEK2 = NEK2 (Homo sapiens (Human), UniProt P51955); details: read-out: percent of control
Chain of NEK2 (P51955 whole entry): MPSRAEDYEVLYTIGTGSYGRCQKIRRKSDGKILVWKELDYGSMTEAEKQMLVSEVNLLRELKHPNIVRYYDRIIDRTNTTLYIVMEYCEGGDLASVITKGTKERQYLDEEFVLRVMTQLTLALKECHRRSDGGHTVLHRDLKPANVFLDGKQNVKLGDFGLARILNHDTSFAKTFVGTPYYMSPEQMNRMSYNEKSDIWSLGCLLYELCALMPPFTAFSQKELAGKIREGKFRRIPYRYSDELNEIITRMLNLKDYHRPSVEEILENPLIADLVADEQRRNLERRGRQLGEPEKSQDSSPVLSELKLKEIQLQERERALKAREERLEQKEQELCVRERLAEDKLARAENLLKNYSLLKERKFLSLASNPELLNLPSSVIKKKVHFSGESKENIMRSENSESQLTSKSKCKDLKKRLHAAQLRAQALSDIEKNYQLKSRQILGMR
Method: as §1

YANK1 = YANK1 (Homo sapiens (Human), UniProt Q8WU08); details: read-out: percent of control
Method: as §1

EPHA3 = EPHA3 (Homo sapiens (Human), UniProt P29320); details: read-out: percent of control
Method: as §1

CHEK2 = CHEK2 (Homo sapiens (Human), UniProt O96017); details: read-out: percent of control
Chain of CHEK2 (O96017 whole entry): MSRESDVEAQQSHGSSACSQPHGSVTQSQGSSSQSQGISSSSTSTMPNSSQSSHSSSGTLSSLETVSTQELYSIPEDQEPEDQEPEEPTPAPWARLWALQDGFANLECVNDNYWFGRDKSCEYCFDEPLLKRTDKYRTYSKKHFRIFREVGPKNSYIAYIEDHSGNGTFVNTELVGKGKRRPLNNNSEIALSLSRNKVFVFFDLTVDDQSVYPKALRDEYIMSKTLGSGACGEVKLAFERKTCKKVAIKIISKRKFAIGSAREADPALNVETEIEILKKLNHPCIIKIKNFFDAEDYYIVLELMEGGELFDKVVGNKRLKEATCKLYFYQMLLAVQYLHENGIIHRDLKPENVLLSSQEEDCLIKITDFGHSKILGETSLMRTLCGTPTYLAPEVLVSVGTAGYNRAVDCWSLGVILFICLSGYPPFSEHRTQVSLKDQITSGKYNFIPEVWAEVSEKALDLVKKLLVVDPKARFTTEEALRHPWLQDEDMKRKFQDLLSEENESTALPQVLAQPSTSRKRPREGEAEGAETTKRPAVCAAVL
Method: as §1

RIPK4 = RIPK4 (Homo sapiens (Human), UniProt P57078); details: read-out: percent of control
Method: as §1

MARK2 = MARK2 (Homo sapiens (Human), UniProt Q7KZI7); details: read-out: percent of control
Method: as §1

GRK1 = GRK1 (Homo sapiens (Human), UniProt Q15835); details: read-out: percent of control
Method: as §1

GSK3B = GSK3B (Homo sapiens (Human), UniProt P49841); details: read-out: percent of control
Method: as §1

RET (V804M) = RET (V804M) (Homo sapiens (Human), UniProt P07949, V804M); details: read-out: percent of control
Method: as §1

LRRK2(G2019S) = LRRK2(G2019S) (Homo sapiens (Human), UniProt Q5S007, G2019S); details: read-out: percent of control
Chain of LRRK2(G2019S) (Q5S007 whole entry G2019S): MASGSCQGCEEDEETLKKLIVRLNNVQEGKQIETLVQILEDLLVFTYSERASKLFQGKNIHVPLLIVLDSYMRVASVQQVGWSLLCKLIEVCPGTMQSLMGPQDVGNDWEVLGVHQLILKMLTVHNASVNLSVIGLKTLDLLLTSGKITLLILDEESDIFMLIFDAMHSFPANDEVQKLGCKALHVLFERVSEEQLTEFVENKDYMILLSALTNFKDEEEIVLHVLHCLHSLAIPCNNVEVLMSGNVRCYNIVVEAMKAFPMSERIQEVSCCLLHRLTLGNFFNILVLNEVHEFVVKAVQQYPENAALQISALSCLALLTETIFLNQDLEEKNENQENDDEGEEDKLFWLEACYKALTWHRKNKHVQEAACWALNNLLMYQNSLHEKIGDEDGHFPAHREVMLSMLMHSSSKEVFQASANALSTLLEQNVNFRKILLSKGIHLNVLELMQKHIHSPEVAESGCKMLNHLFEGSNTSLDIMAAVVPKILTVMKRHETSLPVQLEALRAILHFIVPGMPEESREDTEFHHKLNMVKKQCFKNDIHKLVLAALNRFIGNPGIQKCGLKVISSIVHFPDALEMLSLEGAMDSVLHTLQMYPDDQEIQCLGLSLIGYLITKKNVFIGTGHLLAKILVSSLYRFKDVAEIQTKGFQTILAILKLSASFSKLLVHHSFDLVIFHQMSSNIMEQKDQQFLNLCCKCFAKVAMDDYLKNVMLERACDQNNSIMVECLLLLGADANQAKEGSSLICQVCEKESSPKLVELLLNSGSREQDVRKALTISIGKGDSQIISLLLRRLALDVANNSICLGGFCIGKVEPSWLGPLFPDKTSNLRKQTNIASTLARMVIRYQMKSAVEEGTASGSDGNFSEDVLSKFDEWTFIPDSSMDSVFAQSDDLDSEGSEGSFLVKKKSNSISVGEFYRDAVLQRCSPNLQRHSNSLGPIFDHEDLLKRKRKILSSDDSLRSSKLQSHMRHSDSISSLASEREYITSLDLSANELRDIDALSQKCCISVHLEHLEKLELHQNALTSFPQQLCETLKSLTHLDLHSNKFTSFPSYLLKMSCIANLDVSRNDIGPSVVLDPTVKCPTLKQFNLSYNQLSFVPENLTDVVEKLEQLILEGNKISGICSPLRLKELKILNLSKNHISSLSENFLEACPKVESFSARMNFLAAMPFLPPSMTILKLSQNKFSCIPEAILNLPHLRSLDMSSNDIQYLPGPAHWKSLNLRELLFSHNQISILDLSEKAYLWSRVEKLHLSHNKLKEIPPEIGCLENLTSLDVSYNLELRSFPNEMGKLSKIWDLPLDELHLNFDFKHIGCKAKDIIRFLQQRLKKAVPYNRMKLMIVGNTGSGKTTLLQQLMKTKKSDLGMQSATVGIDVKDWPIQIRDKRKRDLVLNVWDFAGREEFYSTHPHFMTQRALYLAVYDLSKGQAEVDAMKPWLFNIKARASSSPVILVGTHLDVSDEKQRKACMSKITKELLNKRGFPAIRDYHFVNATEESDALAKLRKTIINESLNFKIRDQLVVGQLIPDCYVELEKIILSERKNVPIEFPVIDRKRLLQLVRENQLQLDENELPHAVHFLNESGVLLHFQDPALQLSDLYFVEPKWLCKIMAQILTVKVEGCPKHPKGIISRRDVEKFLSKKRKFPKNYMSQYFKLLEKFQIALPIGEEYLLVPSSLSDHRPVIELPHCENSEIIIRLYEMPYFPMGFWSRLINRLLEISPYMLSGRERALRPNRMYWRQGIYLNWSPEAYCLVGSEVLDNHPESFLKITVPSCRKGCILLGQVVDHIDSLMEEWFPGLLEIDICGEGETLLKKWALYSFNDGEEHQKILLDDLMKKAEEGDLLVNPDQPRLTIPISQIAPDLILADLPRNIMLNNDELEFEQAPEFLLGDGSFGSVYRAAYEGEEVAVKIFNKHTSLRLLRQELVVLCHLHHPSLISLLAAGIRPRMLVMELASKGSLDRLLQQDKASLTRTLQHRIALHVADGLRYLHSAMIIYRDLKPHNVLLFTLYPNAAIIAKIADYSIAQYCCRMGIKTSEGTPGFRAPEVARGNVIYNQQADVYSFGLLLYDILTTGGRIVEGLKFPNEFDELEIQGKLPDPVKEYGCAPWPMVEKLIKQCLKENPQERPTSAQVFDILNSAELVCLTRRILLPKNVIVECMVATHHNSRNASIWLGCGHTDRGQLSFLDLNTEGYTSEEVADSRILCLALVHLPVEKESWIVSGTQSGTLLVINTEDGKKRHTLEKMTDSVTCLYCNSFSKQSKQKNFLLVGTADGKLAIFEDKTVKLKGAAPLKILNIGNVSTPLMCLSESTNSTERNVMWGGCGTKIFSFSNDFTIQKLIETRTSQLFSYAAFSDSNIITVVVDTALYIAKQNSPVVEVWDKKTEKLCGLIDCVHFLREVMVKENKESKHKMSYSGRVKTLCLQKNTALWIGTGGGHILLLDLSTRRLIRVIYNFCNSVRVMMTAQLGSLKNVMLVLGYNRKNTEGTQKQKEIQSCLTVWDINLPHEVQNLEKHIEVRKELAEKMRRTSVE
Method: as §1

CTK = CTK (Homo sapiens (Human), UniProt P42679); details: read-out: percent of control
Method: as §1

STK36 = STK36 (Homo sapiens (Human), UniProt Q9NRP7); details: read-out: percent of control
Method: as §1

PAK3 = PAK3 (Homo sapiens (Human), UniProt O75914); details: read-out: percent of control
Method: as §1

EPHB3 = EPHB3 (Homo sapiens (Human), UniProt P54753); details: read-out: percent of control
Method: as §1

MLCK = MLCK (Homo sapiens (Human), UniProt Q32MK0); details: read-out: percent of control
Method: as §1

RIPK5 = RIPK5 (Homo sapiens (Human), UniProt Q6XUX3); details: read-out: percent of control
Method: as §1

EGFR(L747-E749del,A750P) = EGFR(L747-E749del,A750P) (Homo sapiens (Human), UniProt P00533, A750P/DEL747-749); details: read-out: percent of control
Chain of EGFR(L747-E749del,A750P) (P00533 other isoform, or with tags, fused parts or gaps A750P/del 1-668/del 747-749/del 1012-1210 limits assumed): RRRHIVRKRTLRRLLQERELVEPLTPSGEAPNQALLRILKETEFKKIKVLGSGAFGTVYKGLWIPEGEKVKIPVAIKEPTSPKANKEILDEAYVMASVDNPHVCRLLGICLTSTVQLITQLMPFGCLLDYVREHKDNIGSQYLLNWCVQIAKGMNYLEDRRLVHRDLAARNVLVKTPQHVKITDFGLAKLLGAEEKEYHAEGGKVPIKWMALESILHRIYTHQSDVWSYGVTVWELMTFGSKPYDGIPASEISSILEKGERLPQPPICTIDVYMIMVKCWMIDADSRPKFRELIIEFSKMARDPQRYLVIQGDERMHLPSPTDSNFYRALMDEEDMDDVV
Method: as §1

CDC2L5 = CDC2L5 (Homo sapiens (Human), UniProt Q14004); details: read-out: percent of control
Method: as §1

SGK3 = SGK3 (Homo sapiens (Human), UniProt Q96BR1); details: read-out: percent of control
Method: as §1

SNRK = SNRK (Homo sapiens (Human), UniProt Q9NRH2); details: read-out: percent of control
Method: as §1

ERK4 = ERK4 (Homo sapiens (Human), UniProt P31152); details: read-out: percent of control
Method: as §1

MST4 = MST4 (Homo sapiens (Human), UniProt Q9P289); details: read-out: percent of control
Method: as §1

NEK9 = NEK9 (Homo sapiens (Human), UniProt Q8TD19); details: read-out: percent of control
Method: as §1

SMILES | remaining binding at 1 µM (VEGFR2) [%] | remaining binding at 1 µM (MINK) [%] | remaining binding at 1 µM (CSNK1A1L) [%] | remaining binding at 1 µM (GRK7) [%] | remaining binding at 1 µM (WNK3) [%] | remaining binding at 1 µM (CASK) [%] | remaining binding at 1 µM [1] [%] | remaining binding at 1 µM (TNNI3K) [%] | remaining binding at 1 µM (CAMK4) [%] | remaining binding at 1 µM (EPHA5) [%] | percent of control (FLT3 (ITD,F691L)) [%] | remaining binding at 1 µM (MEK4) [%] | remaining binding at 1 µM (CLK1) [%] | remaining binding at 1 µM (FLT4) [%] | remaining binding at 1 µM (IRAK1) [%] | remaining binding at 1 µM (PIKFYVE) [%] | remaining binding at 1 µM (NEK2) [%] | remaining binding at 1 µM (YANK1) [%] | remaining binding at 1 µM (EPHA3) [%] | remaining binding at 1 µM (CHEK2) [%] | further results
CCN1CCN(Cc2cc(NC(=O)c3ccc(C)c(-c4ccc5nc(NC(=O)C6CC6)cn5n4)c3)cc(C(F)(F)F)c2)CC1 [Compound I-2, 3-(2-(cyclopropanecarboxamido)imidazo[1,2-b]pyridazin-6-yl)-N-(3-((4-ethylpiperazin-1-yl)methyl)-5-(trifluoromethyl)phenyl)-4-methylbenzamide] | 1.4 | 0.6 | 100 | 100 | 92 | 86 | 88 | 56 | 94 | 2.3 | 12 | 98 | 7.9 | 0.05 | 18 | 93 | 84 | 93 | 41 | 90 | remaining binding at 1 µM (RIPK4): 98%; remaining binding at 1 µM (MARK2): 96%; remaining binding at 1 µM (GRK1): 91%; remaining binding at 1 µM (GSK3B): 93%; remaining binding at 1 µM (RET (V804M)): 0.05%; remaining binding at 1 µM (LRRK2(G2019S)): 84%; remaining binding at 1 µM (CTK): 38%; remaining binding at 1 µM (STK36): 66%; remaining binding at 1 µM (PAK3): 82%; remaining binding at 1 µM (EPHB3): 30%; remaining binding at 1 µM (MLCK): 93%; remaining binding at 1 µM (RIPK5): 89%; remaining binding at 1 µM (EGFR(L747-E749del,A750P)): 14%; remaining binding at 1 µM (CDC2L5): 0.3%; remaining binding at 1 µM (SGK3): 100%; remaining binding at 1 µM (SNRK): 84%; remaining binding at 1 µM (ERK4): 96%; remaining binding at 1 µM (MST4): 92%; remaining binding at 1 µM (NEK9): 100%
CCN1CCN(Cc2cc(NC(=O)c3ccc(C)c(-c4ccc5nc(NC(=O)C6CC6)cn5c4)c3)cc(C(F)(F)F)c2)CC1 [Compound I-6, 3-(2-(cyclopropanecarboxamido)imidazo[1,2-a]pyridin-6-yl)-N-(3-((4-ethylpiperazin-1-yl)methyl)-5-(trifluoromethyl)phenyl)-4-methylbenzamide] | 2 | 2.4 | 97 | 97 | 83 | 85 | 78 | 36 | 96 | 2.5 | 34 | 71 | 20 | 0.3 | 29 | 100 | 100 | 93 | 34 | 93 | remaining binding at 1 µM (RIPK4): 100%; remaining binding at 1 µM (MARK2): 78%; remaining binding at 1 µM (GRK1): 93%; remaining binding at 1 µM (GSK3B): 100%; remaining binding at 1 µM (RET (V804M)): 0%; remaining binding at 1 µM (LRRK2(G2019S)): 100%; remaining binding at 1 µM (CTK): 31%; remaining binding at 1 µM (STK36): 100%; remaining binding at 1 µM (PAK3): 66%; remaining binding at 1 µM (EPHB3): 35%; remaining binding at 1 µM (MLCK): 85%; remaining binding at 1 µM (RIPK5): 100%; remaining binding at 1 µM (EGFR(L747-E749del,A750P)): 18%; remaining binding at 1 µM (CDC2L5): 0.75%; remaining binding at 1 µM (SGK3): 100%; remaining binding at 1 µM (SNRK): 99%; remaining binding at 1 µM (ERK4): 100%; remaining binding at 1 µM (MST4): 100%; remaining binding at 1 µM (NEK9): 92%
